Experimental data published in US12281123B2, “Benzoxazinone compounds as KLK5/7 dual inhibitors” (MOLECULAR SKIN THERAPEUTICS, INC., priority 2019, dated 2025).
Where “and” joins values, the source holds several entries; their conditions need not be identical. Equal entries are not always repeated. Where two headings read alike, the source gives them in different places.

Assays:
Type in all cases: biochemical
Chymotrypsin = Chymotrypsin (Bos taurus, UniProt P00766); experiment: Chromogenic assay, chymotrypsin
Excerpt: (§1) Human Kallikrein Proteins: Recombinant human KLK5 expressed in HEK293 was obtained from SpeedBio (Gaithersburg, MD). Recombinant proenzyme KLK-7 and recombinant proenzyme KLK-14 both expressed in mouse myeloma cells were from R&D Biosystems (Minneapolis, MN). Plasmin and thrombin were from Haematologic Technologies (Essex Junction, VT). Trypsin and Chymotrypsin were bought from Worthington Biochemical Corporation (Lakewood, NJ) and plasma kallikrein was from Prospec (East Brunswick, NJ). Neutrophil Elastase was obtained from Innovative Research (Peary Court, MI). Bovine recombinant enterokinase expressed in E. coli was bought from Sigma (St. Louis, MI). Matriptase expressed in E. coli was obtained from Enzo Life Sciences (Farmingdale, NY). The control inhibitors Nafamostat mesylate was from Sigma (St. Louis, MI) and (2-(2-fluorophenyl)-5,6,7,8-tetrahydro-4H-benzo[4,5]thieno[2,3-d][1,3]oxazin-4-one was from Interbioscreen (Moskow, Russia).
(§2) Substrates: S-2288 (D-Ile-Pro-Arg-pNA), CS-PSA (MeO-Suc-Arg-Pro-Tyr-pNA), S-2266 (H-D-Val-Leu-Arg-pNA) and S-2288 (H-D-Ile-Pro-Arg-pNA) were bought from Diapharma (West Chester, OH). MeOSuccAla-Ala-Pro-Val-pNA was purchased from Sigma (St Louis, MI). The substrates were dissolved in water at 10 mM and were frozen in aliquots at −20° C.
Assays: All assays were performed in 384 well polystyrene plates coated overnight with 0.1% Tween 20 at 4° C. The plates were then washed twice with 100 μL water and dried. For the determination of IC50 values, the inhibitors were diluted in serial dilutions of 1:3 intervals into pure DMSO at 50 fold of the intended final concentrations in the assays. Usually eight inhibitor dilutions and one DMSO control were prepared. The substrates were diluted into water at 2.2-fold the final concentration in the assay mixture. […] The assays were monitored at 37° C. in a multi well plate reader at a wavelength of 405 nm (Molecular Devices, San Jose, CA) for 1 h. […]
(§3) Data analysis: The progress curves of substrate hydrolysis were analyzed by linear regression of the final 20 min of the reaction. […]

Trypsin = biological target: T1, Trypsin (UniProt P00760); experiment: Chromogenic assay, trypsin; details: Trypsin 0.1 nM; S-2288 500 μM; highest conc. of 1.001 50 μM
T1 sequence (P00760 1-246): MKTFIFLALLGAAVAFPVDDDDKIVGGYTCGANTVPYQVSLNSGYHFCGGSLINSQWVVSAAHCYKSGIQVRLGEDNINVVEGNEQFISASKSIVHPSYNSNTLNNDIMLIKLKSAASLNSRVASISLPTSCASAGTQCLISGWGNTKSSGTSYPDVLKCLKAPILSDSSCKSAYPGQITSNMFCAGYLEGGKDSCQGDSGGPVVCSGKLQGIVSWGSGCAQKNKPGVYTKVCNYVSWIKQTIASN
Excerpt: as §1, with “Russia). […]” for “Russia).”
(§4) Assays: All assays were performed in 384 well polystyrene plates coated overnight with 0.1% Tween 20 at 4° C. […] The assays were monitored at 37° C. in a multi well plate reader at a wavelength of 405 nm (Molecular Devices, San Jose, CA) for 1 h. […]
as §3

KLK14 = biological target: T2, KLK14 (Homo sapiens, UniProt Q9P0G3); experiment: Chromogenic assay, KLK14; details: S-2288 500 μM, highest conc. of 1.001 50 μM
T2 construct: purchased R&D Biosystems (Minneapolis, MN) / R&Dsystems; host or cells: mouse myeloma cells
T2 sequence (Q9P0G3 25-251): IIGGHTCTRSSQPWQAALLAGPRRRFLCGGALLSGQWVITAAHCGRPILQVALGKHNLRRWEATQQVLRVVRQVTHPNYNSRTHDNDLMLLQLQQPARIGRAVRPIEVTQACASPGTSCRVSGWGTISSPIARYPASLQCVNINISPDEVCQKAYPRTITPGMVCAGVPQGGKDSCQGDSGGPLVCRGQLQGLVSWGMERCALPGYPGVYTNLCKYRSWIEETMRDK
Excerpt: as §1, §2
(§5) Activation of KLK-7 and KLK-14: 150 μL 8 μM solution of the proenzymes of KLK-7 or KLK-14 in 50 mM Tris, 10 mM CaCl2, 150 mM NaCl, 0.05% (w/v) Brij-35, pH 7.5 were mixed with 150 μL 10 μg/mL bovine enterokinase in the same buffer and incubated for 2 h for KLK-7 and 1 h for KLK-14 at 37° C. After the incubation period, activation was stopped by addition of 6 μL 0.5 M EDTA pH 8.0.
Assays: All assays were performed in 384 well polystyrene plates coated overnight with 0.1% Tween 20 at 4° C. The plates were then washed twice with 100 μL water and dried. […] The assays were monitored at 37° C. in a multi well plate reader at a wavelength of 405 nm (Molecular Devices, San Jose, CA) for 1 h. […]
as §3

Factor Xa = biological target: T3, Factor Xa (Homo sapiens, UniProt P00742); experiment: Chromogenic assay, Factor Xa; details: Factor Xa 0.5 nM; S-2288 500 μM; highest conc. of 1.001 20 μM
T3 construct: purchased Haematologic Technologies
Method: (§6) Assays: All assays were performed in 384 well polystyrene plates coated overnight with 0.1% Tween 20 at 4° C. The plates were then washed twice with 100 μL water and dried. For the determination of IC50 values, the inhibitors were diluted in serial dilutions of 1:3 intervals into pure DMSO at 50 fold of the intended final concentrations in the assays. Usually eight inhibitor dilutions and one DMSO control were prepared. The substrates were diluted into water at 2.2-fold the final concentration in the assay mixture. The wells of the plate were filled with 50 μL of the enzyme diluted in 2× assay buffer (100 mM Tris, 200 mM NaCl, 0.2% PEG, 0.01% Tween, 2 mM EDTA, pH 8.0) at twofold the intended concentration. Then 5 μL DMSO, 2.2 μL inhibitor and 45 μL substrate were added to start the reaction. The assays were monitored at 37° C. in a multi well plate reader at a wavelength of 405 nm (Molecular Devices, San Jose, CA) for 1 h. The tool inhibitor, nafamostat, was used as a control for trypsin, thrombin, KLK-5 and KLK-14 at 10 μM maximal concentration and (2-(2-fluorophenyl)-5,6,7,8-tetrahydro-4H-benzo[4,5]thieno[2,3-d][1,3]oxazin-4-one for KLK-7 at 5 μM.
Data analysis: The progress curves of substrate hydrolysis were analyzed by linear regression of the final 20 min of the reaction. Fit of the dose response of the resulting rates to the following equation yielded the IC50: […]

KLK7 = biological target: T4, KLK7 (Homo sapiens, UniProt P49862); experiment: Recombinant KLK7 chromogenic IC50 assay
T4 construct: purchased R&D Biosystems (Minneapolis, MN) / R&Dsystems; host or cells: mouse myeloma cells
Excerpt: as §1, §2, §5, §6
The table summarizes assay conditions for the individual enzymes:
Data analysis: The progress curves of substrate hydrolysis were analyzed by linear regression of the final 20 min of the reaction. Fit of the dose response of the resulting rates to the following equation yielded the IC50:
[formula] with 1) c: the background rate at the highest inhibitor concentration; 2) d: the rate of the control reaction; 3) IC50: the IC50 of the inhibitor; 4) x: the inhibitor concentration; and 5) b: the slope.
Proteases: KLK5 (SpeedBioSystems); KLK7 (R&Dsystems) was activated with enterokinase (2 hours, 37° C.) prior to assay; Trypsin (Sigma Aldrich); Chymotrypsin (Sigma Aldrich); Factor Xa (Haematologic Technologies); Plasmin (Haematologic Technologies); KLK14 (R&Dsystems) was activated with enterokinase (1 hour, 37° C.) prior to assay; Thrombin (Haematologic Technologies); Neutrophil Elastase (Athens Research&Technology); and KLK1 (Prospec).

Thrombin = biological target: T5, Thrombin (Homo sapiens, UniProt P00734); experiment: Chromogenic assay, thrombin; details: Thrombin 0.5 nM; S-2288 500 μM; highest conc. of 1.001 100 μM
T5 construct: purchased Haematologic Technologies (Essex Junction, VT)
Excerpt: as §1, with “Russia). […]” for “Russia).”
as §4, §3

[1] = Chymotrypsin 0.2 nM, CS-PSA 500 μM, highest conc. of 1.001 50 μM

T3 sequence (P00742 235-488 limits assumed): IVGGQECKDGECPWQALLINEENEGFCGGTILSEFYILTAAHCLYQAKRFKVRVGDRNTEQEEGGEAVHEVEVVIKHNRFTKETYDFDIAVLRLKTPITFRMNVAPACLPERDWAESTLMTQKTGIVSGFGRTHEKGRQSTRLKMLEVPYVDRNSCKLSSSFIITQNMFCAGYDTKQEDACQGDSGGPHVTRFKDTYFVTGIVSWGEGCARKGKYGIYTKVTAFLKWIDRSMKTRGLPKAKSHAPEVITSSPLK
T3 sequence (P00742 41-179 partner limits assumed): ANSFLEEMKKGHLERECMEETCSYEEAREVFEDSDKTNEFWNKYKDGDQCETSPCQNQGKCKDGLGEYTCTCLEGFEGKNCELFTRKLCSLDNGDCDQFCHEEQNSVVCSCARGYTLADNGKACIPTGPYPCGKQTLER
T4 sequence (P49862 30-253): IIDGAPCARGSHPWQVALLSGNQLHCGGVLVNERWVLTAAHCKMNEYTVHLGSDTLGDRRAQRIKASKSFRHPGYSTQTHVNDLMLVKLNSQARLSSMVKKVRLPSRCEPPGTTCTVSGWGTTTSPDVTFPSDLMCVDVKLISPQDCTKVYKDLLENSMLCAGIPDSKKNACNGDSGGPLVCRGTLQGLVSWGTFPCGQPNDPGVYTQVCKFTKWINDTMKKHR

IC50 (Chymotrypsin; [1])	Inhibition of Chymotrypsin, conclusion in words (Chymotrypsin; conclusion from Table 3)	IC50 (Trypsin)	IC50 (KLK14; KLK14 1 nM) [µM]	IC50 (KLK14; KLK14 5 nM) [µM]	IC50 (Factor Xa)	IC50 (KLK7; Table 2, assay protocol of Example 3, read-out: Recombinant KLK7 enzyme (IC50)) [µM]	IC50 (KLK7; Table 3, KLK7 20 nM, CS-PSA 500 μM, highest conc. of 1.001 20 μM, read-out: IC50 (μM), KLK7)	Inhibition of KLK7, conclusion in words (KLK7; conclusion from Table 3)	IC50 (Thrombin) [µM]	SMILES	IC50 (μM), Chymotrypsin (Chymotrypsin; [1])	IC50 (μM), Trypsin (Trypsin)	IC50 (μM), KLK14 (KLK14; KLK14 5 nM)	IC50 (μM), Factor Xa (Factor Xa)	IC50 (μM), KLK7 (KLK7; Table 3, KLK7 20 nM, CS-PSA 500 μM, highest conc. of 1.001 20 μM)	IC50 (μM), Thrombin (Thrombin)
0.249 µM and 0.317 µM	inhibitor	1.66 µM and 1.36 µM and 2.2 µM	0.442	0.633	3.22 µM and 10.4 µM and 3.94 µM	0.34	0.647 µM and 0.693 µM	inhibitor	> 10	CS(=O)(=O)c1cc(CO)ccc1-c1nc2cc3c(cc2c(=O)o1)OCCO3 [Compound 1.001, 2-(4-(Hydroxymethyl)-2-(methylsulfonyl)phenyl)-7,8-dihydro-4H-[1,4]dioxino[2′,3′:4,5]benzo[1,2-d][1,3]oxazin-4-one]	–	–	–	–	–	–
–	–	–	–	–	–	–	–	–	–	CS(=O)(=O)c1cc(CO)ccc1C(=O)Nc1cc2c(cc1C(=O)O)OCCO2 [Compound 408, reference compound]	No inhibition	No inhibition	No inhibition	No inhibition	No inhibition	No inhibition
